Among the data in patent US11180504B2 (ORCHID PHARMA LTD., priority 2016, dated 2021) are MIC values, retold here.

Values after ≈ are worked out from the molar mass of the structure shown. Like-named read-outs stand apart in the source and are kept apart here.

Assay [1] deals with carbapenem sensitive Escherichia coli. Nature of the assay: MIC by broth micro-dilution (CLSI), carbapenem sensitive E. coli. The class given is cell-based.
Assay [2] concerns carbapenemase producing K. pneumoniae. Nature of the assay: MIC by broth micro-dilution (CLSI), carbapenemase producing K. pneumoniae. It is filed as cell-based, Klebsiella pneumoniae.
Assay [3] has as its system carbapenem sensitive Pseudomonas aeruginosa. Nature of the assay: MIC by broth micro-dilution (CLSI), carbapenem sensitive P. aeruginosa. It is filed as cell-based.
For assay [4], the system named is methicillin-sensitive Staphylococcus aureus. Nature of the assay: MIC by broth micro-dilution (CLSI), methicillin-sensitive S. aureus. It is filed as cell-based. Conditions: MSSA S. aureus ATCC29213.
[5] abbreviates: Escherichia coli, ATCC25922, ESBL −ve E. coli ATCC25922, read-out: MIC.
Setting [6] is: Klebsiella pneumoniae, ATCCBAA1705, KPC-2 K. pneumoniae ATCC BAA-1705, read-out: MIC.
Setting [7] is: Pseudomonas aeruginosa, ATCC27853, Meropenem susceptible P. aeruginosa ATCC27853, read-out: MIC.
[8] abbreviates: Staphylococcus aureus, ATCC 29213 / MSSA, read-out: MIC.
[9] abbreviates: KPC-2 K. pneumoniae ATCC BAA-1705.
The mark [10] stands for this setting: Meropenem susceptible P. aeruginosa ATCC27853.

Consider `C[C@@H](NC(=O)Cn1cnnn1)[C@H]1C(=O)N2C(C(=O)O)=C(S[C@@H]3CN[C@H](C(=O)N4CC(N)(CC#N)C4)C3)[C@H](C)[C@H]12` [Example 424, (4R,5S,6R)-6-((R)-1-(2-(1H-tetrazol-1-yl)acetamido)ethyl)-3-((3S,5S)-5-(3-amino-3-(cyanomethyl)azetidine-1-carbonyl)pyrrolidin-3-ylthio)-4-methyl-7-oxo-1-azabicyclo[3.2.0]hept-2-ene-2-carboxylic acid], for which the minimal inhibitory concentration (MIC) in assay [1] (setting [5]) amounted to 0.25 µg/mL (≈ 0.448 µM); in assay [2] (setting [6]), 2 µg/mL (≈ 3.58 µM); in assay [3] (setting [7]), 16 µg/mL (≈ 28.6 µM); in assay [4] (setting [8]), 16 µg/mL (≈ 28.6 µM).

On to `C[C@@H](NC(=O)Cn1cnnn1)[C@H]1C(=O)N2C(C(=O)O)=C(S[C@@H]3CN[C@H](C(=O)N4CCC(N5CC(O)C5)CC4)C3)[C@H](C)[C@H]12` [Example 426, (4R,5S,6R)-6-((R)-1-(2-(1H-tetrazol-1-yl)acetamido)ethyl)-3-((3S,5S)-5-(4-(3-hydroxyazetidin-1-yl]piperidine-1-carbonyl)pyrrolidin-3-ylthio)-4-methyl-7-oxo-1-azabicyclo[3.2.0]hept-2-ene-2-carboxylic acid], for which the MIC in assay [1] (setting [5]) came out at 0.25 µg/mL (≈ 0.414 µM); in assay [2] (setting [6]), 1 µg/mL (≈ 1.66 µM); in assay [3] (setting [7]), 2 µg/mL (≈ 3.31 µM); in assay [4] (setting [8]) it was 4 µg/mL (≈ 6.63 µM).

`C[C@@H](NC(=O)Cn1cnnn1)[C@H]1C(=O)N2C(C(=O)O)=C(S[C@@H]3CN[C@H](C(=O)N4C[C@H](NC(=N)N)[C@@H](O)C4)C3)[C@H](C)[C@H]12` [Example 427, (4R,5S,6R)-6-((R)-1-(2-(1H-tetrazol-1-yl)acetamido)ethyl)-3-((3S,5S)-5-((3S,4S)-3-guanidino-4-hydroxypyrrolidine-1-carbonyl)pyrrolidin-3-ylthio)-4-methyl-7-oxo-1-azabicyclo[3.2.0]hept-2-ene-2-carboxylic acid]: the MIC was found to be 0.25 µg/mL (≈ 0.423 µM) in assay [1] (setting [5]), 1 µg/mL (≈ 1.69 µM) in assay [2] (setting [6]), 2 µg/mL (≈ 3.38 µM) in assay [3] (setting [7]) and 2 µg/mL (≈ 3.38 µM) in assay [4] (setting [8]).

Turning to `C[C@@H](NC(=O)Cn1cnnn1)[C@H]1C(=O)N2C(C(=O)O)=C(S[C@@H]3CN[C@H](C(=O)N4CCC(C(=O)N5CC[C@@H](N)C5)CC4)C3)[C@H](C)[C@H]12` [Example 428, (4R,5S,6R)-6-((R)-1-(2-(1H-tetrazol-1-yl)acetamido)ethyl)-3-((3S,5S)-5-(4-((R)-3-aminopyrrolidine-1-carbonyl)piperidine-1-carbonyl)pyrrolidin-3-ylthio)-4-methyl-7-oxo-1-azabicyclo[3.2.0]hept-2-ene-2-carboxylic acid], the minimal inhibitory concentration (MIC) in assay [1] (setting [5]) was 0.5 µg/mL (≈ 0.775 µM); in assay [2] (setting [6]), 4 µg/mL (≈ 6.2 µM); in assay [3] (setting [7]), 2 µg/mL (≈ 3.1 µM); in assay [4] (setting [8]), 4 µg/mL (≈ 6.2 µM).

For the molecule `C[C@@H](NC(=O)Cn1cnnn1)[C@H]1C(=O)N2C(C(=O)O)=C(S[C@@H]3CN[C@H](C(=O)N4CC(N5CCNCC5)C4)C3)[C@H](C)[C@H]12` [Example 429, (4R,5S,6R)-6-((R)-1-(2-(1H-tetrazol-1-yl)acetamido)ethyl)-4-methyl-7-oxo-3-((3S,5S)-5-(3-(piperazin-1-yl)azetidine-1-carbonyl)pyrrolidin-3-ylthio)-1-azabicyclo[3.2.0]hept-2-ene-carboxylic acid], the MIC in assay [1] (setting [5]) is 0.25 µg/mL (≈ 0.425 µM); in assay [2] (setting [6]), 2 µg/mL (≈ 3.4 µM); in assay [3] (setting [7]), 2 µg/mL (≈ 3.4 µM); in assay [4] (setting [8]) it was 4 µg/mL (≈ 6.79 µM).

`C[C@@H](NC(=O)Cn1cnnn1)[C@H]1C(=O)N2C(C(=O)O)=C(S[C@@H]3CN[C@H](C(=O)N4CCC(C(=O)N5CCNCC5)CC4)C3)[C@H](C)[C@H]12` [Example 430, (4R,5S,6R)-6-((R)-1-(2-(1H-tetrazol-1-yl)acetamido)ethyl)-4-methyl-7-oxo-3-((3S,5S)-5-(4-(piperazine-1-carbonyl)piperidine-1-carbonyl)pyrrolidin-3-ylthio)-1-azabicyclo[3.2.0]hept-2-ene-2-carboxylic acid]: the minimal inhibitory concentration (MIC) in assay [1] (setting [5]) came out at 0.5 µg/mL (≈ 0.775 µM); in assay [2] (setting [6]), 2 µg/mL (≈ 3.1 µM); in assay [3] (setting [7]) it was 4 µg/mL (≈ 6.2 µM); in assay [4] (setting [8]) it was 4 µg/mL (≈ 6.2 µM).

Consider `C[C@@H](NC(=O)Cn1cnnn1)[C@H]1C(=O)N2C(C(=O)O)=C(S[C@@H]3CN[C@H](C(=O)N4C[C@@H](O)[C@@H](N)C4)C3)[C@H](C)[C@H]12` [Example 431, (4R,5S,6R)-6-((R)-1-(2-(1H-tetrazol-1-yl)acetamido)ethyl)-3-((3S,5S)-5-((3S,4R)-3-amino-4-hydroxypyrrolidine-1-carbonyl)pyrrolidin-3-ylthio)-4-methyl-7-oxo-1-azabicyclo[3.2.0]hept-2-ene-2-carboxylic acid], for which the MIC in assay [1] (setting [5]) amounted to 0.25 µg/mL (≈ 0.455 µM); in assay [2] (setting [6]) it was 0.5 µg/mL (≈ 0.91 µM); in assay [3] (setting [7]) it was 1 µg/mL (≈ 1.82 µM); in assay [4] (setting [8]), 2 µg/mL (≈ 3.64 µM).

As for `C[C@@H](NC(=O)Cn1cnnn1)[C@H]1C(=O)N2C(C(=O)O)=C(S[C@@H]3CN[C@H](C(=O)N4CCN(CCNC(=N)N)CC4)C3)[C@H](C)[C@H]12` [Example 432, (4R,5S,6R)-6-((R)-1-(2-(1H-tetrazol-1-yl)acetamido)ethyl)-3-((3S,5S)-5-(4-(2-guanidinoethyl)piperazine-1-carbonyl)pyrrolidin-3-ylthio)-4-methyl-7-oxo-1-azabicyclo[3.2.0]hept-2-ene-2-carboxylic acid], the MIC in assay [1] (setting [5]) was found to be 0.25 µg/mL (≈ 0.404 µM); in assay [2] (setting [6]) it was 1 µg/mL (≈ 1.62 µM); in assay [3] (setting [7]), 1 µg/mL (≈ 1.62 µM); in assay [4] (setting [8]) it was 2 µg/mL (≈ 3.23 µM).

Consider `C[C@@H](NC(=O)Cn1cnnn1)[C@H]1C(=O)N2C(C(=O)O)=C(S[C@@H]3CN[C@H](C(=O)N4CCC(N)C(F)C4)C3)[C@H](C)[C@H]12` (stereo partly drawn) [Example 433, (4R,5S,6R)-6-((R)-1-(2-(1H-tetrazol-1-yl)acetamido)ethyl)-3-((3S,5S)-5-(4-amino-3-fluoropiperidine-1-carbonyl)pyrrolidin-3-ylthio)-4-methyl-7-oxo-1-azabicyclo[3.2.0]hept-2-ene-2-carboxylic acid], for which the MIC in assay [1] (ESBL −ve E. coli ATCC25922) is 0.25 µg/mL (≈ 0.442 µM); in assay [2] (setting [9]) it was 1 µg/mL (≈ 1.77 µM); in assay [3] (setting [10]) it was 1 µg/mL (≈ 1.77 µM); in assay [4], 2 µg/mL (≈ 3.54 µM).

With `C[C@@H](NC(=O)Cn1cnnn1)[C@H]1C(=O)N2C(C(=O)O)=C(S[C@@H]3CN[C@H](C(=O)N4CCN(C(=O)[C@H]5C[C@@H](N)CN5)CC4)C3)[C@H](C)[C@H]12` [Example 434, (4R,5S,6R)-6-((R)-1-(2-(1H-tetrazol-1-yl)acetamido)ethyl)-3-((3S,5S)-5-(4-((2R,4R)-4-aminopyrrolidine-2-carbonyl)piperazine-1-carbonyl)pyrrolidin-3-ylthio)-4-methyl-7-oxo-1-azabicyclo[3.2.0]hept-2-ene-2-carboxylic acid], the MIC in assay [1] (setting [5]) worked out at 0.5 µg/mL (≈ 0.774 µM); in assay [2] (setting [6]), 2 µg/mL (≈ 3.1 µM); in assay [3] (setting [7]), 2 µg/mL (≈ 3.1 µM); in assay [4] (setting [8]) it was 2 µg/mL (≈ 3.1 µM).

For the molecule `C[C@@H](NC(=O)Cn1cnnn1)[C@H]1C(=O)N2C(C(=O)O)=C(S[C@@H]3CN[C@H](C(=O)N4CCC5(CCNC5)CC4)C3)[C@H](C)[C@H]12` [Example 435, (4R,5S,6R)-6-((R)-1-(2-(1H-tetrazol-1-yl)acetamido)ethyl)-3-((3S,5S)-5-(2,8-diazaspiro[4.5]decane-8-carbonyl)pyrrolidin-3-ylthio)-4-methyl-7-oxo-1-azabicyclo[3.2.0]hept-2-ene-2-carboxylic acid], the minimum inhibitory concentration (MIC) in assay [1] (setting [5]) was 0.25 µg/mL (≈ 0.425 µM); in assay [2] (setting [6]), 1 µg/mL (≈ 1.7 µM); in assay [3] (setting [7]) it was 1 µg/mL (≈ 1.7 µM); in assay [4] (setting [8]), 2 µg/mL (≈ 3.4 µM).

On to `C[C@@H](NC(=O)Cn1cnnn1)[C@H]1C(=O)N2C(C(=O)O)=C(S[C@@H]3CN[C@H](C(=O)N(CCO)CCO)C3)[C@H](C)[C@H]12` [Example 436, (4R,5S,6R)-6-((R)-1-(2-(1H-tetrazol-1-yl)acetamido)ethyl)-3-((3S,5S)-5-(bis(2-hydroxyethyl)carbarnoyl)pyrrolidin-3-ylthio)-4-methyl-7-oxo-1-azabicyclo[3.2.0]hept-2-ene-2-carboxylic acid], for which the minimum inhibitory concentration (MIC) in assay [1] (setting [5]) came out at 0.25 µg/mL (≈ 0.452 µM); in assay [2] (setting [6]), 1 µg/mL (≈ 1.81 µM); in assay [3] (setting [7]), 8 µg/mL (≈ 14.5 µM); in assay [4] (setting [8]), 8 µg/mL (≈ 14.5 µM).

As for `C[C@@H](NC(=O)Cn1cnnn1)[C@H]1C(=O)N2C(C(=O)O)=C(S[C@@H]3CN[C@H](C(=O)N4CCC(CNCC(N)=O)CC4)C3)[C@H](C)[C@H]12` [Example 437, (4R,5S,6R)-6-((R)-1-(2-(1H-tetrazol-1-yl)acetamido)ethyl)-3-((3S,5S)-5-(4-((2-amino-2-oxoethylamino)methyl)piperidine-1-carbonyl)pyrrolidin-3-ylthio)-4-methyl-7-oxo-1-azabicyclo[3.2.0]hept-2-ene-2-carboxylic acid], the minimal inhibitory concentration (MIC) in assay [1] (setting [5]) came out at 0.25 µg/mL (≈ 0.404 µM); in assay [2] (setting [6]), 1 µg/mL (≈ 1.62 µM); in assay [3] (setting [7]), 2 µg/mL (≈ 3.23 µM); in assay [4] (setting [8]), 2 µg/mL (≈ 3.23 µM).

For `C[C@@H](NC(=O)Cn1cnnn1)[C@H]1C(=O)N2C(C(=O)O)=C(S[C@@H]3CN[C@H](C(=O)N4CCC5CNCCC54)C3)[C@H](C)[C@H]12` (stereo partly drawn) [Example 439, (4R,5S,6R)-6-((R)-1-(2-(1H-tetrazol-1-yl)acetamido)ethyl)-4-methyl-3-((3S,5S)-5-(octahydro-1H-pyrrolo[3,2-c]pyridine-1-carbonyl)pyrrolidin-3-ylthio)-7-oxo-1-azabicyclo[3.2.0]hept-2-ene-2-carboxylic acid], the MIC in assay [1] (ESBL −ve E. coli ATCC25922) stood at 0.25 µg/mL (≈ 0.436 µM); in assay [2] (setting [9]), 1 µg/mL (≈ 1.74 µM); in assay [3] (setting [10]), 1 µg/mL (≈ 1.74 µM); in assay [4], 2 µg/mL (≈ 3.49 µM).
